The source of these data is PubChem BioAssay AID2837 (The Scripps Research Institute Molecular Screening Center, 2010).

Molecules are shown by their SMILES. The source made the active and inactive calls.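 How the source made its calls: active means IC50 of 10 µM or lower; inactive means IC50 above 10 µM.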

Chain of Guanyl-specific ribonuclease T1 (Aspergillus oryzae (strain ATCC 42149 / RIB 40)) (P00651 whole entry, looked up): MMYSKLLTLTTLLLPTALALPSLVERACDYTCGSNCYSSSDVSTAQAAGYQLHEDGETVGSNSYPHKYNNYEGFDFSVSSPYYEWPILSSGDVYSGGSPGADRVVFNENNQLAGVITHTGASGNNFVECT

This experiment addresses Guanyl-specific ribonuclease T1 (Aspergillus oryzae (strain ATCC 42149 / RIB 40)) (UniProt P00651). Briefly: dose-dependent blockade of Aspergillus RNase T1 – biochemical, fluorescence polarization, IC50, counter-screen for TPT1 inhibitor project, late-stage follow-up (AID 2837). Conditions: RNase T1 cleavage of B-U6G-AF.
As for `COc1ccc(OC)c(N2C(=O)/C(=C/c3ccco3)C(=O)NC2=S)c1`, the IC50 result was “inactive”. Under `Cc1ccccc1N1C(=O)/C(=C/c2ccco2)C(=O)NC1=S` stands “inactive”; under `OC(Cn1cncn1)(Cn1cncn1)c1ccc(F)cc1F`, > 49.8 µM (inactive).

Take `Cc1ccc(N2C(=O)NC(=O)/C(=C\c3ccc([N+](=O)[O-])o3)C2=O)cc1`: the IC50 entry is “inactive”.

Consider `O=c1oc2c(O)c(O)cc3c(=O)oc4c(O)c(O)cc1c4c23`, for which the IC50 was > 49.8 µM (inactive).

For the molecule `Cc1cc(C)n(Cc2ccc(C(=O)NN=Cc3ccc(-c4ccc([N+](=O)[O-])cc4)o3)o2)n1`, the IC50 entry was “inactive”. In the case of `NC(=O)c1cc[n+](CC2=C(C(=O)O)N3C(=O)[C@@H](NC(=O)C(c4ccccc4)S(=O)(=O)O)[C@H]3SC2)cc1` (stereo not given in full) it was > 49.8 µM (inactive). Under `CC1=C(C#N)C(=O)N(C2CCS(=O)(=O)C2)C(=O)/C1=C\c1ccco1` (stereo not given) stands > 49.8 µM (inactive). For `Cc1[nH]n(-c2ccc(S(=O)(=O)O)cc2)c(=O)c1N[N-]c1ccc(C2=CC(=O)/C(=N\[N-]c3ccc4c(S(=O)(=O)O)cc(S(=O)(=O)O)c(N)c4c3O)C=C2)cc1O.[Cu+].[Cu+]`, the IC50 is > 49.8 µM (inactive). In the case of `NS(=O)(=O)c1cc(C(=O)NC2CCSc3ccccc32)ccc1Cl` (stereo not given) it was > 49.8 µM (inactive).
